According to the CheMixHub viscosity set:
± gives the uncertainty stated by the source.

Assay: xn = mol fraction of the nth substance listed

COCCOCCOCCOCCOC + CC1COC(=O)O1
298.15 K, 101.33 kPa
Details | viscosity [mPa·s]
x1 = 0.0021 | 2.505 ± 0.039
x1 = 0.0047 | 2.51 ± 0.039
x1 = 0.0111 | 2.543 ± 0.04
x1 = 0.0248 | 2.604 ± 0.041
x1 = 0.0362 | 2.663 ± 0.041
x1 = 0.0516 | 2.716 ± 0.042
x1 = 0.0765 | 2.814 ± 0.044
x1 = 0.1064 | 2.935 ± 0.046
x1 = 0.1537 | 3.083 ± 0.048
x1 = 0.1752 | 3.145 ± 0.049
x1 = 0.2194 | 3.268 ± 0.05
x1 = 0.259 | 3.355 ± 0.052
x1 = 0.3006 | 3.428 ± 0.053
x1 = 0.3585 | 3.506 ± 0.054
x1 = 0.3967 | 3.56 ± 0.055
x1 = 0.4451 | 3.59 ± 0.055
x1 = 0.4956 | 3.602 ± 0.055
x1 = 0.5433 | 3.607 ± 0.056
x1 = 0.6081 | 3.609 ± 0.056
x1 = 0.6396 | 3.615 ± 0.056
x1 = 0.7173 | 3.588 ± 0.055
x1 = 0.782 | 3.559 ± 0.055
x1 = 0.8311 | 3.541 ± 0.055
x1 = 0.896 | 3.498 ± 0.054
x1 = 0.9403 | 3.466 ± 0.053

COCCOCCOCCOCCOC + CC(C)O
viscosity [mPa·s], 101 kPa
Details | x1 = 0.0021 | x1 = 0.0042 | x1 = 0.00994 | x1 = 0.014 | x1 = 0.0152 | x1 = 0.025 | x1 = 0.0355 | x1 = 0.0719 | x1 = 0.0734 | x1 = 0.0994
298.15 K | 2.074 ± 0.033 | 2.059 ± 0.032 | 2.022 ± 0.032 | 1.999 ± 0.031 | 1.996 ± 0.035 | 1.934 ± 0.03 | 1.941 ± 0.031 | 1.86 ± 0.03 | 1.883 ± 0.032 | 1.83 ± 0.029
308.15 K | 1.555 ± 0.025 | 1.549 ± 0.025 | 1.53 ± 0.025 | 1.52 ± 0.024 | 1.52 ± 0.027 | 1.512 ± 0.024 | 1.484 ± 0.024 | 1.465 ± 0.024 | 1.489 ± 0.026 | 1.444 ± 0.023
318.15 K | 1.188 ± 0.02 | 1.185 ± 0.019 | 1.179 ± 0.019 | 1.177 ± 0.019 | 1.18 ± 0.019 | 1.18 ± 0.019 | 1.172 ± 0.019 | 1.163 ± 0.019 | 1.167 ± 0.019 | 1.159 ± 0.019

COCOCOCOCOC + COCOCOC
100 kPa
Details | viscosity [mPa·s]
298.15 K, x2 = 0.65 | 1.125 ± 0.053
303.15 K, x2 = 0.12 | 1.575 ± 0.055

Clc1ccccc1 + CS(C)=O
viscosity [mPa·s]
Details | 298.15 K | 299 K | 308.15 K | 318.15 K
101 kPa, x2 = 0.0871 | – | 1.227 | – | –
101 kPa, x2 = 0.2483 | – | 1.401 | – | –
101 kPa, x2 = 0.462 | – | 1.715 | – | –
101 kPa, x2 = 0.5887 | – | 2.067 | – | –
101 kPa, x2 = 0.7046 | – | 2.357 | – | –
101 kPa, x2 = 0.8612 | – | 2.819 | – | –
101.3 kPa, x1 = 0.035 | 1.865 ± 0.049 | – | 1.559 ± 0.041 | 1.273 ± 0.034
101.3 kPa, x1 = 0.072 | 1.803 ± 0.048 | – | 1.474 ± 0.039 | 1.224 ± 0.032
101.3 kPa, x1 = 0.148 | 1.682 ± 0.044 | – | 1.39 ± 0.04 | 1.142 ± 0.03
101.3 kPa, x1 = 0.23 | 1.564 ± 0.041 | – | 1.29 ± 0.03 | 1.098 ± 0.029
101.3 kPa, x1 = 0.317 | 1.421 ± 0.038 | – | 1.17 ± 0.03 | 1.021 ± 0.027
101.3 kPa, x1 = 0.411 | 1.299 ± 0.034 | – | 1.077 ± 0.028 | 0.927 ± 0.025
101.3 kPa, x1 = 0.511 | 1.193 ± 0.032 | – | 0.986 ± 0.026 | 0.865 ± 0.023
101.3 kPa, x1 = 0.619 | 1.085 ± 0.029 | – | 0.929 ± 0.025 | 0.833 ± 0.022
101.3 kPa, x1 = 0.736 | 0.966 ± 0.026 | – | 0.823 ± 0.022 | 0.742 ± 0.02
101.3 kPa, x1 = 0.863 | 0.866 ± 0.023 | – | 0.733 ± 0.019 | 0.668 ± 0.018
101.3 kPa, x1 = 0.936 | 0.826 ± 0.022 | – | 0.704 ± 0.019 | 0.643 ± 0.017
101.33 kPa, x2 = 0.1 | 0.826 ± 0.008 | – | 0.738 ± 0.007 | 0.656 ± 0.007
101.33 kPa, x2 = 0.2 | 0.905 ± 0.009 | – | 0.807 ± 0.008 | 0.709 ± 0.007
101.33 kPa, x2 = 0.3 | 0.993 ± 0.01 | – | 0.88 ± 0.009 | 0.769 ± 0.008
101.33 kPa, x2 = 0.4 | 1.094 ± 0.011 | – | 0.958 ± 0.009 | 0.832 ± 0.008
101.33 kPa, x2 = 0.5 | 1.206 ± 0.012 | – | 1.043 ± 0.01 | 0.902 ± 0.009
101.33 kPa, x2 = 0.6 | 1.329 ± 0.013 | – | 1.136 ± 0.011 | 0.981 ± 0.01
101.33 kPa, x2 = 0.7 | 1.466 ± 0.014 | – | 1.239 ± 0.012 | 1.068 ± 0.011
101.33 kPa, x2 = 0.8 | 1.616 ± 0.016 | – | 1.361 ± 0.013 | 1.165 ± 0.011
101.33 kPa, x2 = 0.9 | 1.784 ± 0.017 | – | 1.5 ± 0.015 | 1.274 ± 0.013

CCCCn1cc[n+](C)c1.F[P-](F)(F)(F)(F)F + CS(C)=O
Details | viscosity [mPa·s]
298.15 K, 101 kPa, x1 = 0.7812 | 117.5 ± 28

[Cl-].[Cs+] + O
310.15 K, 101 kPa
Details | viscosity [mPa·s]
x1 = 0.000182 | 0.6996 ± 0.0061
x1 = 0.000907 | 0.7002 ± 0.0062
x1 = 0.001823 | 0.7061 ± 0.0063
x1 = 0.002695 | 0.7089 ± 0.0063
x1 = 0.003679 | 0.7129 ± 0.0064
x1 = 0.005197 | 0.719 ± 0.0065
x1 = 0.005988 | 0.7223 ± 0.0066

COCCOCCOCCOCCOC + COC(C)=O
viscosity [mPa·s], 101 kPa
Details | 298.15 K | 308.15 K | 318.15 K
x1 = 0.0089 | 0.382 ± 0.01 | 0.344 ± 0.0093 | 0.325 ± 0.0088
x1 = 0.0206 | 0.404 ± 0.011 | 0.364 ± 0.0098 | 0.339 ± 0.0091
x1 = 0.0384 | 0.439 ± 0.012 | 0.392 ± 0.01 | 0.365 ± 0.0098
x1 = 0.0758 | 0.519 ± 0.014 | 0.459 ± 0.012 | 0.42 ± 0.011
x1 = 0.1174 | 0.61 ± 0.016 | 0.539 ± 0.014 | 0.484 ± 0.013
x1 = 0.1646 | 0.729 ± 0.019 | 0.63 ± 0.017 | 0.56 ± 0.015
x1 = 0.231 | – | 0.773 ± 0.021 | 0.677 ± 0.018
x1 = 0.2993 | 1.096 ± 0.029 | 0.924 ± 0.025 | 0.749 ± 0.02
x1 = 0.3846 | 1.349 ± 0.036 | 1.11 ± 0.029 | 0.947 ± 0.025
x1 = 0.453 | 1.581 ± 0.042 | 1.294 ± 0.034 | 1.09 ± 0.029
x1 = 0.5398 | 1.854 ± 0.049 | 1.503 ± 0.04 | 1.254 ± 0.033
x1 = 0.6662 | 2.272 ± 0.06 | 1.832 ± 0.048 | 1.504 ± 0.04
x1 = 0.719 | 2.475 ± 0.065 | 1.961 ± 0.052 | 1.624 ± 0.043
x1 = 0.7865 | 2.669 ± 0.07 | 2.143 ± 0.057 | 1.751 ± 0.046
x1 = 0.8413 | 2.902 ± 0.076 | 2.278 ± 0.06 | 1.858 ± 0.049
x1 = 0.8673 | 2.957 ± 0.078 | 2.358 ± 0.062 | 1.919 ± 0.051
x1 = 0.8983 | 3.08 ± 0.081 | 2.43 ± 0.064 | 1.956 ± 0.052
x1 = 0.9205 | 3.127 ± 0.082 | 2.478 ± 0.066 | 1.991 ± 0.053
x1 = 0.9565 | 3.266 ± 0.086 | 2.547 ± 0.067 | 2.058 ± 0.055

Clc1cccc2ccccc12 + Cc1ccc(C)cc1
viscosity [mPa·s], 101.33 kPa
Details | x1 = 0.0966 | x1 = 0.1961 | x1 = 0.2964 | x1 = 0.3991 | x1 = 0.4981 | x1 = 0.597 | x1 = 0.7003 | x1 = 0.7974 | x1 = 0.8991
298.15 K | 0.635 ± 0.01 | 0.737 ± 0.012 | 0.847 ± 0.016 | 1.002 ± 0.022 | 1.16 ± 0.028 | 1.36 ± 0.037 | 1.614 ± 0.049 | 1.899 ± 0.064 | 2.294 ± 0.084
303.15 K | 0.596 ± 0.009 | 0.687 ± 0.012 | 0.789 ± 0.015 | 0.926 ± 0.02 | 1.074 ± 0.026 | 1.25 ± 0.034 | 1.475 ± 0.045 | 1.723 ± 0.058 | 2.072 ± 0.076
308.15 K | 0.562 ± 0.009 | 0.644 ± 0.011 | 0.738 ± 0.014 | 0.863 ± 0.019 | 0.997 ± 0.024 | 1.158 ± 0.032 | 1.357 ± 0.041 | 1.576 ± 0.053 | 1.882 ± 0.069

CCc1ccccc1 + CCC(C)=O
298.15 K, 101.33 kPa
Details | viscosity [mPa·s]
x1 = 0.0811 | 0.397 ± 0.004
x1 = 0.1608 | 0.416 ± 0.004
x1 = 0.2397 | 0.433 ± 0.004
x1 = 0.347 | 0.459 ± 0.004
x1 = 0.4606 | 0.487 ± 0.004
x1 = 0.5818 | 0.516 ± 0.004
x1 = 0.7041 | 0.548 ± 0.005
x1 = 0.8394 | 0.587 ± 0.005

COC(C)(C)C + CCCCCCO
viscosity [mPa·s], 101 kPa
Details | x1 = 0.0204 | x1 = 0.0304 | x1 = 0.0495
298.15 K | 4.315 ± 0.18 | 4.175 ± 0.17 | 3.925 ± 0.16
303.15 K | – | – | 3.395 ± 0.14
